Earlier results in patent publication US20090023644A1 (priority 2004, published 2009).
Where two headings read alike, the source gives them in different places.

Experiments:
[1] = 600 ng/min
[2] = 8 ng/kg/min IV infusion for 8 hours
[3] = IV infusion 10 or 20 minutes at 0.8, 3.2 or 16 ng/kg/min

tachycardia [3]: no tachycardia observed
Substance: Calcitonin gene-related peptide [CGRP]
cardiac output [3]: increase
systemic vascular resistance [3]: decreased
type of vasodilator behaviour (at lower doses): pure arteriolar vasodilator
type of vasodilator behaviour (at the higher dose): mixed vasodilator
discontinuation of infusion due to nausea, diarrhea, and/or severe facial flushing ([1]; 48-hour continuous IV infusion): discontinued after 28 hours in 3 out of the 6 patients
hemodynamic functions such as left ventricular function ([1]; pulsed therapy): improve
unfavorable side effects ([1]; pulsed therapy): tachycardia and neurohumoral response were also observed
tolerability ([1]; pulsed therapy (2-8 hour infusions for two consecutive days)): well tolerated
cardiac output [2]: increased
pulmonary and systemic arterial pressure [2]: decreased
time to loss of hemodynamic effects after stopping CGRP infusion [2]: ≤ 30 min
vascular resistance [2]: decreased
glomerular filtration ([2]; during treatment): increased
renal blood flow ([2]; during treatment): increased
